Reference: patent US20180193294A1, “Dehydroabietic acid (DHAA) derivatives for use as ion channel openers” (priority 2015, published 2018)
Where two headings read alike, the source gives them in different places.

Experiments:
3R Shaker K channel = 3R Shaker K channel (Drosophila melanogaster, UniProt P08510, A359R/M356R); assay: physchem; format: cell-based; conditions: for pKa: Drosophila melanogaster, from pH dependence of G(V) shift; for G(V) shift: Table 1; for G(V) shift / compound-induced G(V) shift (mean±SEM): pH 7.4, Xenopus oocytes; for Effects on K channel Mean ± SEM: Table 2, K channel expressed in Xenopus oocytes; for maximum shift: dose dependence fit; for relative current amplitude: representative traces at voltage giving 10% of maximum conductance in control
Chain of 3R Shaker K channel (P08510 whole entry M356R/A359R): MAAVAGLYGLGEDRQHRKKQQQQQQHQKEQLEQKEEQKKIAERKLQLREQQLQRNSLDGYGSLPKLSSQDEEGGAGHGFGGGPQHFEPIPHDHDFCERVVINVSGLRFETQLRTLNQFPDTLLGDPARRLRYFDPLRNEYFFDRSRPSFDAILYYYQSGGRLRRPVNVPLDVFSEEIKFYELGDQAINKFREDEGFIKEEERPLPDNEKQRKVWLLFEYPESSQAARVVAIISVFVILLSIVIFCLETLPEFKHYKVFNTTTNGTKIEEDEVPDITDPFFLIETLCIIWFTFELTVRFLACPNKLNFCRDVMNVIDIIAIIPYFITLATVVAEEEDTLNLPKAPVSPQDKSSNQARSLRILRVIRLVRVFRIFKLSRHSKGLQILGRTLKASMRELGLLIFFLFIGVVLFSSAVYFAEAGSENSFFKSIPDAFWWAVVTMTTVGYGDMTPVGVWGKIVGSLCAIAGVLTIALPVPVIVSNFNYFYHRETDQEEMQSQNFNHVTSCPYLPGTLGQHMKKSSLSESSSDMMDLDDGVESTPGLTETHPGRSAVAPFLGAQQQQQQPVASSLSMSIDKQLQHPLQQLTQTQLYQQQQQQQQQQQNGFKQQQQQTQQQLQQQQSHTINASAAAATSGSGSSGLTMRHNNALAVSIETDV
Procedure, shortened: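 Two-electrode voltage clamp at 20-23° C. in oocytes (also CHO-K1 stable line, manual patch clamp) expressing Shaker H4 lacking N-type inactivation; 1K extracellular solution, pH 7.4, holding −80 mV, 100-ms 5-mV steps up to +70 mV. Compound-induced G(V) shift taken at 10% of control Gmax (oocytes) or as V1/2 difference (CHO-K1).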

HL-1 cells = assay: Membrane potential and firing of spontaneously beating HL-1 cells, whole-cell current clamp; format: cell-based; conditions: 10 uM
Procedure: All conventional chemicals were purchased from Sigma-Aldrich (Stockholm, Sweden). The DHAA derivatives were diluted in ethanol in a 100 mM stock solution. The stock solutions were stored at −20 t for further use.
The cell culture was done according to a previous study (Claycomb et al., Proceedings of the National Academy of Sciences of the United States of America 1998; 95:2979-2984). In brief, cells were grown on gelating fibronectin coated T75 flasks. They were maintained in Claycomb Medium which was supplemented with 10% fetal bovine serum, 2 mM L-glutamine, 0.1 mM noradrenaline, and 100 U/ml, 100 μg/ml penicillin-streptomycin. Enzymatic dissociation with 0.05% trypsin-EDTA was done after full confluence. Isolated cells were plated on fibronectin-gelatin coated plastic coverslips and used for recording.
Whole-cell current-clamp recordings were done on confluent cells at 35±1° C., using an Axopatch 200B amplifier (Molecular Devices, Sunnyvale, Calif.). Patch pipettes were fabricated from borosilicate capillary glass on a vertical pipette puller and had resistances of 3-5 MO. Data were stored on a computer through Digidata 1440A interface (Molecular Devices), and was analyzed with pCLAMP software (version 10.1, Molecular Devices). The bath solution contained the following (in mM): 140 NaCl, 5.4 KCl, 1 MgCl2, 1.8 CaCl2, 10 HEPES, and 10 glucose (pH adjusted to 7.4 with NaOH). The micropipettes were filled with a solution containing (in mM): 130 K-gluconate, 9 KCl, 8 NaCl, 1 MgCl2, 10 EGTA, 10 HEPES, and 3 Na2ATP (pH adjusted to 7.3 with KOH).

Structure (SMILES)	increase in G(V) shift relative to DHAA (ΔVc7, ΔVhalo, ΔVtot) (3R Shaker K channel; 100 μM, pH 7.4) [mV]	pKa (3R Shaker K channel; 100 μM)	G(V) shift (3R Shaker K channel; 100 μM) [mV]	Effects on K channel Mean ± SEM (3R Shaker K channel) [mV]	factor of increase of the G(V) shift by bromination of C12 with methyloxime at C7 (3R Shaker K channel; Wu32 versus Wu36, 100 μM, pH 7.4)	Kd (3R Shaker K channel; c1/2 of dose dependence of G(V) shift (Eq. 3), pH 7.4, read-out: Kd-value) [µM]	maximum shift (3R Shaker K channel; pH 7.4) [mV]	shift more than expected from simple addition (3R Shaker K channel; methyloxime at C7 plus Br-12, 100 μM, pH 7.4) [mV]	relative current amplitude (3R Shaker K channel; 100 μM, pH 7.4) [times]	Effects on HL-1 cells Mean (membrane potential) (HL-1 cells) [mV]	effect on membrane potential of HL-1 cells (HL-1 cells)	compound-induced G(V) shift (mean±SEM) (3R Shaker K channel; 100 μM)	effect on G(V) shift / current compared with DHAA (3R Shaker K channel; C7-modified DHAA, 100 μM, pH 7.4)	Kd (3R Shaker K channel) [µM]	ΔG(V) at 1 μM (3R Shaker K channel; 1 μM, pH 7.4) [mV]	ΔG(V) of representative G(V) curves (single examples) (3R Shaker K channel; 100 μM, pH 7.4, same cells as representative traces) [mV]
CO/N=C1\CC2[C@](C)(C(=O)O)CCC[C@]2(C)c2cc(Br)c(C(C)C)cc21 (stereo partly drawn) [Wu32, (1R,4aS,E)-6-bromo-7-isopropyl-9-(methoxyimino)-1,4a-dimethyl-1,2,3,4,4a,9,10,10a-octahydrophenanthrene-1-carboxylic acid]	−18.5	5.8	−30.0	−30.0 ± 1.8	2.5	37	−41	−15.5	10.8	−3.6	intermediate effect on the HL-1 cells	–	–	–	–	–
CC(C)c1ccc2c(c1)C(C(=O)O)CC1[C@](C)(C(=O)O)CCC[C@]21C (stereo partly drawn) [Wu35]	–	–	−1.3	−1.2 ± 0.6	–	–	–	–	1.3	1.5	no effect on the HL-1 cells	no effect on the K channel	clearly reduced the current increase	–	–	–
C[C@@]1(C(=O)O)CCC[C@]2(C)c3cc(Cl)c(Cl)c(Cl)c3CCC12 (stereo partly drawn) [Wu50, (1R,4aS)-6,7,8-trichloro-1,4a-dimethyl-1,2,3,4,4a,9,10,10a-octahydrophenanthrene-1-carboxylic acid]	–	6.5	−31.6	−31.6 ± 2.1	–	–	−46	–	–	−5.5	–	−31.6±2.1 mV	–	37	−1.3±0.3	−32.6
